Experimental data: the Deep4Chem optical property database
One block for each compound: values may come before it.

Assay: solvent given as SMILES
[1] = in O=P(c1ccccc1)(c1ccccc1)c1ccccc1Oc1ccccc1P(=O)(c1ccccc1)c1ccccc1

Compound: CC1(C)c2ccccc2N(c2ccc(-c3nnc(-c4cc(-c5ccccc5)c(-c5ccccc5)c(-c5ccccc5)c4-c4ccccc4)o3)cc2)c2ccccc21
fluorescence lifetime (in c1ccc(-n2c(-c3c(-n4c5ccccc5c5ccccc54)cccc3-n3c4ccccc4c4ccccc43)nc3ccccc32)cc1): 5.5 ns

Compound: c1ccc(-c2cc(-c3ccc4ccc5c(-c6ccnc(-c7ccccn7)c6)ccc6ccc3c4c65)ccn2)nc1
fluorescence lifetime (in C1CCOC1): 2 ns | fluorescence lifetime (in CC#N): 2.2 ns | fluorescence lifetime (in CCC#N): 2.2 ns | fluorescence lifetime (in CCCC#N): 2.1 ns | fluorescence lifetime (in CCCCCC): 2.6 ns | fluorescence lifetime (in CCCO): 2.1 ns | fluorescence lifetime (in CCO): 2.1 ns | fluorescence lifetime (in CO): 1.7 ns | fluorescence lifetime (in Cc1ccccc1): 1.8 ns

Compound: CCOC(=O)c1ccc(C2=CC3=c4cc(-c5ccc(C(=O)OCC)cc5)c5nc(C(F)(F)C(F)(F)C(F)(F)F)nc6c(-c7ccc(C(=O)OCC)cc7)cc(c4c65)C4=CC(c5ccc(C(=O)OCC)cc5)=C5N=C(C(F)(F)C(F)(F)C(F)(F)F)N=C2C5C43)cc1 (stereo not drawn)
fluorescence lifetime (in C1CCOC1): 2.8 ns

Compound: N#Cc1c(-n2c3ccccc3c3cc(I)ccc32)c(C#N)c(-n2c3ccccc3c3cc(I)ccc32)c(-n2c3ccccc3c3cc(I)ccc32)c1-n1c2ccccc2c2cc(I)ccc21
fluorescence lifetime (in Cc1ccccc1): 0.4 ns

Compound: CC(C)c1cc(C(C)C)c(B2c3ccccc3Oc3cc(-n4c5ccccc5c5ccc6c(c7ccccc7n6-c6ccccc6)c54)ccc32)c(C(C)C)c1
fluorescence lifetime (in CC(C)c1cc(C(C)C)c(-c2ccc(-n3c4ccccc4n4c5ccccc5nc34)nc2)c(C(C)C)c1): 29.6 ns | fluorescence lifetime [1]: 27 ns

Compound: FC(F)(F)c1ccc(-c2nnc(-c3cc(-c4nnc(-c5ccc(C(F)(F)F)cc5)o4)c(-n4c5ccccc5c5ccccc54)cc3-n3c4ccccc4c4ccccc43)o2)cc1
fluorescence lifetime (in Cc1ccccc1): 5.1 ns | fluorescence lifetime [1]: 8.6 ns

Compound: COc1nnc(Cl)nn1
fluorescence lifetime (in ClCCl): 160 ns

Compound: c1ccc2c(c1)Sc1ccc(-n3c4ccccc4c4ccccc43)cc1S2
fluorescence lifetime (in CC1CCCCC1): 9.4 ns | fluorescence lifetime [1]: 3.5 ns | fluorescence lifetime (in c1cc(-c2cccc(-n3c4ccccc4c4ccccc43)c2)cc(-n2c3ccccc3c3ccccc32)c1): 5.1 ns

Compound: CC(=O)c1ccc2ccc3cccc4ccc1c2c34
fluorescence lifetime (in C1CCOC1): 13.4 ns | fluorescence lifetime (in CC#N): 9.47 ns | fluorescence lifetime (in CCCCCC): 6.56 ns | fluorescence lifetime (in CCO): 0.784 ns | fluorescence lifetime (in CN(C)C=O): 5.34 ns | fluorescence lifetime (in CO): 0.538 ns | fluorescence lifetime (in Cc1ccccc1): 2.8 ns | fluorescence lifetime (in ClCCl): 4.8 ns

Compound: CC(C)c1cccc(C(C)C)c1N1C(=O)c2cc(Cl)c3c4c(Cl)cc5c6c(cc(Cl)c(c7c(Cl)cc(c2c37)C1=O)c64)C(=O)N(c1c(C(C)C)cccc1C(C)C)C5=O
fluorescence lifetime (in Cc1ccccc1): 5.11 ns

Compound: CC1=CC(c2ccc3cc(N(C)C)ccc3c2)=[O+][B-](F)(F)O1
fluorescence lifetime (in C1CCOC1): 3.56 ns | fluorescence lifetime (in CC#N): 1.02 ns | fluorescence lifetime (in CC(C)=O): 2.72 ns | fluorescence lifetime (in CS(C)=O): 1.47 ns | fluorescence lifetime (in Cc1ccccc1): 4.08 ns | fluorescence lifetime (in ClC(Cl)Cl): 3.46 ns | fluorescence lifetime (in ClCCl): 3.69 ns

Compound: Cc1ccc2c(nc3c(=O)n(C)c(=O)nc-3n2C)c1C
fluorescence lifetime (in CC#N): 3.9 ns

Compound: c1ccc(-c2ccc3c(c2)c2cc(-c4ccccc4)ccc2n3-c2ccc3c(c2)c2cc(-n4c5ccc(-c6ccccc6)cc5c5cc(-c6ccccc6)ccc54)ccc2n3-c2ccc(-c3nc(-c4ccccc4)nc(-c4ccccc4)n3)cc2)cc1
fluorescence lifetime (in Cc1ccccc1): 6.3 ns

Compound: CCC1=C(C)C2=C(C)c3cc(I)c(I)n3[B-](F)(F)[N+]2=C1C
fluorescence lifetime (in C1CCCCC1): 1.02 ns | fluorescence lifetime (in CC(C)=O): 0.82 ns | fluorescence lifetime (in CCO): 0.939 ns | fluorescence lifetime (in CCOC(C)=O): 0.893 ns | fluorescence lifetime (in CO): 0.882 ns | fluorescence lifetime (in OCC(F)(F)F): 0.779 ns

Compound: CCCCCCCCCCN1C(=O)c2cc(NCCCOCCO)c3c4c(cc(NCCCOCCO)c(c24)C1=O)C(=O)N(CCCCCCCCCC)C3=O
fluorescence lifetime (in CO): 7.8 ns | fluorescence lifetime (in ClC(Cl)Cl): 9.7 ns

Compound: Oc1ccc2ccc(C3(O)C4CC5CC(C4)CC3C5)cc2c1 (stereo not drawn)
fluorescence lifetime (in CC#N): 7.78 ns

Compound: c1ccc(N2c3ccc4ccccc4c3-c3c4ccccc4cn[n+]3[B-]2(c2ccccc2)c2ccccc2)cc1
fluorescence lifetime (in Cc1ccccc1): 2.56 ns

Compound: C=CCOc1nnc(OCCC(F)(F)C(F)(F)C(F)(F)C(F)(F)C(F)(F)C(F)(F)F)nn1
fluorescence lifetime (in ClCCl): 63.8 ns | fluorescence lifetime (in OCC(F)(F)F): 8.7 ns

Compound: N#Cc1cccc2cc[nH]c12
fluorescence lifetime (in C1CCOC1): 6.9 ns | fluorescence lifetime (in C1COCCO1): 7.5 ns | fluorescence lifetime (in CC#N): 8 ns | fluorescence lifetime (in CC(C)O): 9 ns | fluorescence lifetime (in CCO): 8.7 ns | fluorescence lifetime (in CO): 8.2 ns | fluorescence lifetime (in CS(C)=O): 14.5 ns | fluorescence lifetime (in NC=O): 15.7 ns | fluorescence lifetime (in O): 2 ns | fluorescence lifetime (in OCC(F)(F)F): 1.2 ns | fluorescence lifetime (in [2H]O[2H]): 2.3 ns

Compound: CC(=O)OC[C@@H]1O[C@H](N2C=CC3=Nc4nc(C)[n+](C)cc4CN3C2=O)[C@@H](O)[C@H]1O
fluorescence lifetime (in CC#N): 3.92 ns | fluorescence lifetime (in O): 1.04 ns

Compound: COC(=O)C(NC(=O)OC(C)(C)C)c1ccc2oc(-c3ccc(C#N)cc3)nc2c1 (stereo not drawn)
fluorescence lifetime (in CC1CCCCC1): 1.28 ns | fluorescence lifetime (in CC#N): 1.87 ns | fluorescence lifetime (in CO): 1.92 ns

Next, values leading:

fluorescence lifetime (in CCO): 2.12 ns | fluorescence lifetime (in ClC(Cl)Cl): 4.31 ns | fluorescence lifetime (in O): 0.27 ns
Compound: CCOC(=O)c1ccccc1-c1c2ccc(=[N+](CC)CC)cc-2oc2c1c(=O)oc1cc(N(CC)CC)ccc12

fluorescence lifetime (in CC#N): 2.14 ns
Compound: COc1ccc(C#Cc2ccccc2C#Cc2ccc(OC)cc2)cc1

fluorescence lifetime (in ClCCl): 0.75 ns
Compound: c1ccc2c(c1)c1ccc3cccc4c3c1c2c1c2cccc3ccc5c6ccccc6c(c5c32)c41

fluorescence lifetime (in ClCCl): 1.65 ns
Compound: CCCCn1c(-c2ccc(-c3nnc(-c4cccs4)o3)cc2)nc(-c2ccccc2)c1-c1ccccc1

fluorescence lifetime (in C1CCCCC1): 140 ns
Compound: Cc1cccc2ccccc12

fluorescence lifetime (in CC#N): 1.09 ns | fluorescence lifetime (in CCCCCC): 0.4 ns
Compound: C(=C\c1ccc2ccccc2c1)/c1ccc(N(c2ccccc2)c2ccccc2)cc1

fluorescence lifetime (in ClC(Cl)Cl): 0.6 ns
Compound: CCCC1(CCC)c2cc(C=C(C#Cc3ccccc3)C#Cc3ccccc3)ccc2-c2ccc(C=C(C#Cc3ccccc3)C#Cc3ccccc3)cc21

fluorescence lifetime (in C1CCCCC1): 0.49 ns
Compound: COC(=O)c1nc(Br)c(-c2ccccc2)o1

fluorescence lifetime (in ClCCl): 1.17 ns
Compound: C(=C\c1cc(-c2ccc3ccccc3c2)c(/C=C/c2ccc(N(c3ccccc3)c3ccccc3)cc2)cc1-c1ccc2ccccc2c1)/c1ccc(N(c2ccccc2)c2ccccc2)cc1

fluorescence lifetime (in CO): 0.24 ns | fluorescence lifetime (in ClC(Cl)Cl): 1.95 ns
Compound: CC[n+]1c(C=C2C(=O)C(C=C3N(C)c4ccccc4C3(C)C)=C2[O-])sc2ccccc21

fluorescence lifetime (in ClCCl): 2.19 ns
Compound: Nc1cccc2c1ccc1[n+]2[B-](F)(F)n2c-1cc1c3ccccc3c3ccccc3c12

fluorescence lifetime (in CC#N): 1.86 ns | fluorescence lifetime (in CCCCCC): 0.62 ns
Compound: CN(c1ccccc1)c1ccc(/C=C/c2ccccc2)cc1

fluorescence lifetime (in ClCCl): 6.4 ns
Compound: COc1ccc(C2=Cc3ccccc3P2(=O)c2ccccc2)cc1 (stereo not drawn)

fluorescence lifetime (in C1CCOC1): 2.8 ns
Compound: FC(F)(F)C(F)(F)C(F)(F)C1=NC2=C(Oc3ccccc3)C=C3c4cc(Oc5ccccc5)c5nc(C(F)(F)C(F)(F)C(F)(F)F)nc6c(Oc7ccccc7)cc(c4c56)=C4C=C(Oc5ccccc5)C(=N1)C2C34 (stereo not drawn)

fluorescence lifetime (in CC#N): 3.05 ns
Compound: COc1ccc(-c2csc(/C(C#N)=C/c3ccc(Cl)cc3Cl)n2)cc1

fluorescence lifetime (in ClC(Cl)Cl): 0.958 ns
Compound: COc1ccc(C2=Cc3c4ccccc4cc[n+]3[B-](F)(F)O2)cc1

fluorescence lifetime (in ClCCl): 1.92 ns
Compound: N#Cc1ccc(-n2c(-c3ccc(-c4ccc(-c5nc6c7ccccc7c7ccccc7c6n5-c5ccc(C#N)c6ccccc56)cc4)cc3)nc3c4ccccc4c4ccccc4c32)c2ccccc12

fluorescence lifetime (in CC#N): 2.41 ns | fluorescence lifetime (in CO): 2.38 ns | fluorescence lifetime (in O): 2.56 ns
Compound: CNCCCC1c2ccccc2C=Cc2ccccc21

fluorescence lifetime (in CO): 0.529 ns
Compound: CC1(C)C(/C=C/C2=C(Cl)C(=C/C=C3/N(CCCS(=O)(=O)[O-])c4ccccc4C3(C)C)/CCC2)=[N+](CCCS(=O)(=O)[O-])c2ccccc21

fluorescence lifetime (in CC#N): 2.1 ns
Compound: Cc1ccc(-[c+]2c3ccccc3oc3ccccc32)cc1
